Values of other authors in patent EP4568488B1, “VEGETABLE- AND/OR FRUIT-CONTAINING SNACK FOOD PRODUCTS AND MANUFACTURE THEREOF” (PepsiCo International Limited, priority 2022, dated 2024).
Where two headings read alike, the source gives them in different places.

CC1=C(/C=C/C(C)=C/C=C/C(C)=C/C=C/C=C(C)/C=C/C=C(C)/C=C/C2=C(C)CCCC2(C)C)C(C)(C)CCC1 [β-carotene]
half-life time of β-carotene (convective hot-air drying of carrot slices at 45°C): 3.02 ± 0.04 h | half-life time of β-carotene (convective hot-air drying of carrot slices at 65°C): 1.43 ± 0.03 h
